Article PMC10619133, “The catechol moiety of obafluorin is essential for antibacterial activity” (RSC Chemical Biology, 2023)
Values after ≈ are worked out from the molar mass of the structure shown. “Also recorded” adds a separate entry of the source. Like-named read-outs stand apart in the source and are kept apart here.

Legend:
E. coli NR698 = experiment: Spot-on-lawn MIC bioassay; type: cell-based; details: Escherichia coli, NR698
Description: (§1) Indicator strains were grown for 16–18 h in LB (5 mL) by inoculation from a single colony. An aliquot of the resulting culture (500 μL) was then used to inoculate LB (50 mL in 250 mL Erlenmeyer flasks), followed by orbital shaking at 250 rpm until they reached an OD600 of 0.3–0.4. These cultures were then diluted 1 : 10 with molten soft nutrient agar (SNA), before pouring into appropriately sized Petri dishes to set. Serial dilutions of the test compounds (from 256 μg mL^−1 to 1 μg mL^−1 plus an additional sample at 1000 μg mL^−1) were prepared in acetonitrile (ACN), and 4 μL of each sample was applied directly onto the SNA surface. Kanamycin (50 μg mL^−1), apramycin (50 μg mL^−1) or aureobasidin A (0.2 μg mL^−1) were used as positive controls, as appropriate, and ACN or water (4 μL) were used as negative controls. […] Experiments were carried out in at least triplicate for each strain.

PfThrRS = PfThrRS (Pseudomonas fluorescens, UniProt C3JZN7); experiment: Aminoacylation assay; type: biochemical, P. fluorescens; details: enzyme 10 nM; read-out: concentration of full inhibition
Description: (§2) To measure the effects of 1–4 on ThrRS canonical tRNA charging activity, an assay modified from that reported by Ruan et al.[53] was used, where active enzyme was incubated with its necessary substrates and its activity measured using ^14C labeled Thr and a liquid scintillation counter. Purified ThrRS protein (10 nM) was pre-incubated with varying concentrations of compounds 1–4 or ACN for 10 min. After pre-incubation, ThrRS samples were added to a master reaction mixture with the final component concentrations of HEPES (100 mM, pH 7.0), ATP (4 mM), MgCl2 (10 mM), L-[U-^14C]threonine (50 μM, Moravek Inc.), and tRNA^Thr (5 μM). This mixture was incubated at room temperature for 10 min, with samples taken at 1, 2.5, 5, and 10 min. At each time point, a 7 μL aliquot was spotted onto a 5% trichloroacetic acid (TCA) presoaked 3 MM Whatman paper (Cytiva) squares (repeated in triplicate). After allowing the spots to dry, the Whatman paper was washed three times with 5% TCA, and once with 95% EtOH. The Whatman paper was dried and the counts on each square of paper analyzed using a Tri-Carb 2910 TR liquid scintillation counter using Hydrofluor Liquid Scintillation Fluid (National Diagnostics). To calculate IC50 values, fractional initial velocities (velocity of inhibited reaction/velocity in the absence of inhibitor) were plotted against the log of 1 concentration and then fitted to eqn (1), using GraphPad Prism.1 [drawing 1]

ObaO = experiment: Aminoacylation assay; type: biochemical, P. fluorescens
Description: as §2

Streptococcus pyogenes = test system: Streptococcus pyogenes; set-up: method as in doi:10.1021/jo00350a010; details: dosed systemically; cited from earlier work
MRSA = experiment: Spot-on-lawn MIC bioassay; type: cell-based, Methicillin-resistant Staphylococcus aureus; details: for MIC: Staphylococcus aureus, MRSA, read-out: MIC
Description: as §1
The method was the same as for the antibacterial MIC assays described above, with the following modifications: for excess iron, Fe(NO3)3·9H2O stock (400 mM) was added to give a final concentration of 1.5 or 2.0 mM; for iron depletion, bipy stock (1 M) was added to give a final concentration of 150 μM. For MRSA, 1 was further diluted to 0.5 0.25 and 0.125 μg mL^−1 due to a decrease in MIC under excess iron conditions. The general effect of excess iron on the activity of alternative antibiotics was determined by performing a similar serial dilution of carbenicillin, kanamycin, streptomycin, nitrofurantoin and chloramphenicol in the presence of Fe^3+.

S. cerevisiae = experiment: Spot-on-lawn MIC bioassay; type: cell-based, S. cerevisiae NCYC 2939; details: Saccharomyces cerevisiae
Description: as §1

Chain of PfThrRS (C3JZN7 whole entry): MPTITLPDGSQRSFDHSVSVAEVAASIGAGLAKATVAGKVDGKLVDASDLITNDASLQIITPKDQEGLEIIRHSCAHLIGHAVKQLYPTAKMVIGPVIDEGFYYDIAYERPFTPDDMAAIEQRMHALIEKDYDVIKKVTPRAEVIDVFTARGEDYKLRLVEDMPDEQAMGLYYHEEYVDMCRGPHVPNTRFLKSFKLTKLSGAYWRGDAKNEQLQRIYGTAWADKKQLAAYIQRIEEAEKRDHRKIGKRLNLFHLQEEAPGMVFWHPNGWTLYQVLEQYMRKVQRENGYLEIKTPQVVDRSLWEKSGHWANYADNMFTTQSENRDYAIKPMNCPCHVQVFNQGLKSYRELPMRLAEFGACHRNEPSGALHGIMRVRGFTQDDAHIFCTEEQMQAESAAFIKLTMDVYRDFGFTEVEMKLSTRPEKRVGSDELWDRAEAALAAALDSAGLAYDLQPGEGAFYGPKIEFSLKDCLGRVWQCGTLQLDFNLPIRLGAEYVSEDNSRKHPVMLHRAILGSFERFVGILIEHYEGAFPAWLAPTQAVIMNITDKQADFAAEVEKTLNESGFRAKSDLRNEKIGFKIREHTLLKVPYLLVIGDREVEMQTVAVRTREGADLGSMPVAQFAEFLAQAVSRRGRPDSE

O=C(N[C@@H]1C(=O)O[C@@H]1Cc1ccc([N+](=O)[O-])cc1)c1cccc(O)c1O [compound 1, Obafluorin]
MIC (E. coli NR698): 4 µg/mL (≈ 11.2 µM)
IC100 (PfThrRS): 0.01 µM
inhibition of aminoacylation (in words) (ObaO; 0–5 μM (up to 5000 nM)): no observable inhibition; also recorded: no significant inhibition
IC50 (ObaO; enzyme 10 nM, 10 min preincubation, 0–5 μM compound): not inhibited; also recorded: No inhibition
protection of infected mice (in words) (Streptococcus pyogenes): can protect mice
toxicity in mice (in words) (Streptococcus pyogenes): no observable toxicity
MIC (MRSA; +Fe^3+ (2 mM) in the media): 0.25 µg/mL (≈ 0.698 µM)
MIC (MRSA; spot-on-lawn, standard conditions): 2 µg/mL (≈ 5.58 µM)
decrease in MIC with added Fe^3+ (MRSA; with vs without Fe^3+ in growth agar): 8 fold
MIC (S. cerevisiae; Figure S12 legend, read-out: Minimum inhibitory concentration): 1000 µg/mL (≈ 2790 µM)
MIC (S. cerevisiae; standard conditions, read-out: MIC): 1000 µg/mL (≈ 2790 µM)
